# System: spruce somatic embryos
# Assay: ex vitro re-germination of desiccated, pre-germinated spruce somatic embryos after ABA treatment
# Format: in vivo
# Conditions: 90 min in darkness
# Description: Somatic embryos of interior spruce (Picea glauca (Moench) Voss x P. engelmannii Parry ex Engelm.) lines I-1026, and 10-1418 were produced and dried with a high-relative-humidity treatment (HRHT) according to the methods of Roberts et al. (1990a; 1990b) and Webster et al. (1990).
# Two groups of dried embryos for each of the two genotypes, were germinated on Whatman #1 filter paper on a thin layer of cotton in polycarbonate boxes. The liquid germination medium was modified GMD medium (NH4^+—N/NO3^−—N ratio was 1.4; phosphate concentration was 6 mM; 3% sucrose). After the embryos were sown onto the filter paper, the liquid level in the germination boxes was adjusted to provide a liquid film surrounding the surface of embryos situated at the interface with the solid support. The boxes were sealed with Parafilm and placed in a controlled environment room with the temperature maintained at a constant 23° C.
# The first group of somatic embryos was germinated for 7 days after which, the polycarbonate boxes containing the germinants were transferred into refrigerated storage (i.e., temperatures were within a range of 8-12° C.) for 72 hours. The germinants were then removed from the cold treatment and subsequently received the various ABA treatments described below. The germinants which received the cold treatment are hereafter referred to as “stored germinants” .
# This group of germinants is referred to hereafter as “fresh germinants”.
# The stored and fresh germinants of each genotype were carefully paired into four groups, on wetted paper towel disks in separate 10 cm Petri dishes and received four ABA treatments, said ABA treatments being concentrations of 0, 5, 10, 20 μM, respectively. The ABA treatments were applied in darkness for 90 min.
# After the completion of the ABA treatments, the somatic germinants were blot-dried on paper towels. The germinants were then transferred to fresh 5 cm Petri dish. The dishes, two per drying chamber, were placed in drying chambers containing a saturated KCl solution, which provided an atmospheric humidity of 85% RH over the liquid surface in a sealed chamber at 20° C. The somatic germinants were dried for 24 hr in a refrigerated room maintained between 5-8° C. after which, the drying chambers were transferred into a controlled environment room maintained at 20° C. for another 15 h.
# The dried germinants were sown into 288-cavity miniplug trays (TLC Polyform Inc,. Plymouth Minn., USA, 55441) filled with a peat-based soilless mix comprised of 60% peat and 40% coarse horticultural vermiculite. Each germinant type of each genotype in each ABA treatment was randomly sown into 5 minitrays in blocks of 20 germinants. After sowing, the germinants were covered with a thin layer of coir (1993 Crystal Co., St. Louis, Mo., USA). The trays were wrapped in black plastic bags for 18 hrs to allow slow rehydration of germinants. Then, the trays were misted with a modified GMD nutrient solution (Webster et al., 1990) containing 3% sucrose until the soilless mix and coir became well wetted. The trays were placed in two misting chambers in a controlled environment germination room under light reduced by a 50% shade cloth for the first week. The shade cloth was removed at the end of the first week and the germinants were exposed to a light intensity of 180 μmol m^−2s^−1 photosynthetic photon flux. The chambers were frequently misted to keep the soilless mix moistened. Modified GMD solution with 3% sucrose was sprayed onto the germinants daily. After 7 days, germinants were fertilized weekly with 20-20-20 fertilizer (Plant Products Ltd., Brampton, ON, Canada) to deliver the equivalent of 100 ppm N.
smiles,measurement,setting,value
"CC1=CC(=O)CC(C)(C)[C@@]1(O)/C=C/C(C)=C\C(=O)O [ABA, abscisic acid]",Re-germination success (%),"genotype 10-1418, ""fresh"" germinants, ABA 5 μM",53.8%
same,Re-germination success (%),"genotype 10-1418, ""fresh"" germinants, ABA 10 μM",16.6%
same,Re-germination success (%),"genotype 10-1418, ""fresh"" germinants, ABA 20 μM",29.8%
same,Re-germination success (%),"genotype 10-1418, ""stored"" germinants, ABA 5 μM",59.8%
same,Re-germination success (%),"genotype 10-1418, ""stored"" germinants, ABA 10 μM",57.5%
same,Re-germination success (%),"genotype 10-1418, ""stored"" germinants, ABA 20 μM",60.0%
same,Re-germination success (%),"genotype I-1026, ""fresh"" germinants, ABA 5 μM",35.0%
same,Re-germination success (%),"genotype I-1026, ""fresh"" germinants, ABA 10 μM",53.3%
same,Re-germination success (%),"genotype I-1026, ""fresh"" germinants, ABA 20 μM",48.2%
same,Re-germination success (%),"genotype I-1026, ""stored"" germinants, ABA 5 μM",71.8%
same,Re-germination success (%),"genotype I-1026, ""stored"" germinants, ABA 10 μM",74.3%
same,Re-germination success (%),"genotype I-1026, ""stored"" germinants, ABA 20 μM",73.5%

# From patent US6444467B1, “Process for production and subsequent ex vitro sowing and propagation of pre-germinated plant somatic embryos” (Cellfor Inc., priority 1998, dated 2002)
